“Also recorded” adds a separate entry of the source.
Legend:
[1] = test system: differentiated adipocytes; experiment: aP2 secretion into conditioned medium of differentiated adipocytes (immunoblot); assay type: cell-based; details: for aP2 release from adipocytes treated with inhibitors of classical secretory pathways: conditioned medium blotted with anti-aP2; for lipolysis-induced aP2 secretion from adipocytes: co-treatment of adipocytes in which lipolysis was induced (IBMX/dbcAMP)
From the text: HEK 293 cells were maintained in DMEM with 10% fetal bovine serum. FABP-deficient cell lines were established as previously described. Cao, H. et al. Identification of a lipokine, a lipid hormone linking adipose tissue to systemic metabolism. Cell 134, 933-944 (2008). Makowski, L. et al. Lack of macrophage fatty-acid-binding protein aP2 protects mice deficient in apolipoprotein E against atherosclerosis. Nat Med 7, 699-705 (2001). Pre-adipocytes were maintained in DMEM with 10% bovine calf serum and differentiated into adipocytes in DMEM with 10% cosmic calf serum (CCS) using a standard differentiation protocol. To induce lipolysis, differentiated adipocytes were treated with forskolin at 20 nM, or IBMX 1 mM/dibutyryl cAMP 1 mM for one hour. For lipid treatments, 0.25 mM palmitate or stearate was dissolved in DMEM with 10% CCS and added to adipocytes cultured in 12-well plates. At the end of one hour, the medium was replaced with the same lipid-containing medium, and conditioned medium was collected an additional hour later. To collect fat explants, epididymal adipose tissue depots were dissected from mice and rinsed twice in PBS. Adipose tissue samples were then transferred into DMEM with 10% CCS and minced into an average size of 1 to 2 mm. The tissue explants were washed extensively with DMEM and cultured in DMEM containing 10% CCS. Lipolysis was induced in the same manner as adipocytes.
(§1) Tissue protein lysate and conditioned medium from adipocytes were separated on SDS-PAGE gels and stained with Coomassie (Biorad Laboratory), or were detected with immunoblotting using the following antibodies: adiponectin from Santa Cruz Biotechnology, MFG-E8 from Calbiochem, caveolin-1 from BD Bioscience, AKT from Cell Signaling Technology. Flag-tagged aP2 was immunoprecipated using 4 ml of conditioned medium from transfected HEK 293 cells after incubation with 30 μl Flag agarose beads (Sigma) overnight at 4° C. Proteins bound to agarose beads were eluted with SDS loading buffer and resolved with SDS-PAGE.

[2] = test system: differentiated adipocytes; experiment: Adiponectin secretion into conditioned medium of differentiated adipocytes (immunoblot); assay type: cell-based; details: inhibitors of classical secretory pathways
From the text: FIG. 7A is a photograph of an electrophonetic gel showing non-classical secretion of aP2. Conditioned medium from adipocytes treated with control, brefeldin A (Bref A) or monensin (Mon) were blotted using anti-aP2 or adiponectin antibodies. Whole cell lysate (WCL) was also blotted using anti-aP2 antibody.
as §1

serum aP2 = experiment: Serum aP2 in mice after isoproterenol-induced lipolysis; assay type: in vivo; details: isoproterenol 10 mg/kg, blood 15 min following injection, vs vehicle
Method: Blood was collected from mice by tail bleeding after 6 hours of food withdrawal and spun in a microcentrifuge at 13,000 rpm for 30 minutes. Serum aP2 was determined with an ELISA system (Biovendor Inc.). […] To determine aP2 levels during lipolysis, blood was collected from 12 mice at baseline levels. After this, 6 mice were injected with isoproterenol (10 mg/kg body weight) and the other 6 received vehicle control. Blood samples were collected 15 min following injection for aP2 measurement.

PEPCK and G6P = experiment: Liver gluconeogenic gene expression by quantitative real-time PCR; assay type: in vivo; details: WT mice infused with recombinant aP2 vs control protein
Method: FIG. 6K is a bar graph showing gene expression in livers of WT mice infused with control protein or recombinant aP2 (top panel) or mice on HFD injected with control or aP2 antibody (bottom panel). PEPCK and G6P in liver tissues were analyzed with quantitative real-time PCR. *, p<0.05.
Total RNA was isolated from liver tissues using Trizol reagent (Invitrogen). Reverse transcription was carried out with a superscript first-strand cDNA synthesis system (Applied Biosystems Inc.) using 1 μg of RNA. Quantitative, real-time RT-PCR was performed on a PCR thermal cycler (Applied Biosystems Inc.). The PCR program was: 2 min 30 s at 95° C. for enzyme activation, 40 cycles of 15 s at 95° C., 30 s at 58° C., and 1 min at 72° C. for extension. Melting curve analysis was performed to confirm the real-time PCR products. All quantitations were normalized to the 1 8S rRNA. Primer sequences used were the following: PEPCK, forward: […](SEQ ID NO: 5), reverse: CAGCAACTGCCCGTACTCC (SEQ ID NO: 6); G6P, forward: […] (SEQ ID NO:7), reverse: […] (SEQ ID NO: 8).

[3] = Serum aP2 ELISA after recombinant aP2 injection or infusion; assay type: in vivo, mice
Method: FIG. 11 is a bar graph showing serum aP2 in WT mice after recombinant aP2 injection. Serum samples of mice were collected at indicated time points after aP2 injection and aP2 levels were determined with an aP2 ELISA.
FIG. 13 is a line graph showing Serum aP2 in FABP-deficient (DKO) mice during aP2 infusion. Serum samples were collected from FABP-deficient mice during aP2 infusion at indicated time points. Serum aP2 levels were determined with an aP2 ELISA.
Blood was collected from mice by tail bleeding after 6 hours of food withdrawal and spun in a microcentrifuge at 13,000 rpm for 30 minutes. Serum aP2 was determined with an ELISA system (Biovendor Inc.). To monitor nutritional regulation of serum aP2, blood samples were collected from mice immediately prior to the start of dark cycle after which animals were placed in cages without food. After 24 hours of fasting, a second set of blood samples were collected and food was provided. Final blood sampling was performed 4 hours after re-feeding. To determine aP2 levels during lipolysis, blood was collected from 12 mice at baseline levels. After this, 6 mice were injected with isoproterenol (10 mg/kg body weight) and the other 6 received vehicle control. Blood samples were collected 15 min following injection for aP2 measurement. […]

[4] = test system: WT mice maintained on regular chow diet; experiment: Glucose tolerance test of regular diet mice injected with recombinant aP2; assay type: in vivo; details: lean WT mice, recombinant aP2 100 μg twice a day for two weeks, vs control Gus protein
From the text: FIG. 6I is a line graph showing glucose tolerance test of mice on regular diet injected with control Gus protein or recombinant aP2 for two weeks. *, p<0.05. Mice with homozygous null mutations in aP2 and mall were backcrossed more than 12 generations into a C57BL/6J genetic background. Mice were maintained on regular chow diet (RD) or placed on high-fat diet (Research Diets, Inc) at 4 weeks of age for 20 weeks to induce dietary obesity. Leptin-deficient (ob/ob) mice were purchased from the Jackson laboratory. All mice were maintained on a 12-hour light and dark cycle. Glucose and insulin tolerance tests using standard methods. Recombinant aP2 or control Gus protein with 6×His tag was produced in E. coli and purified with B-PER 6×His Spin Purification Kit (Pierce Biotechnology, Inc). Proteins were further purified by removing endotoxin with a commercial system (Lonza Inc.). 100 μg of control or aP2 protein was injected into WT mice maintained on regular chow diet twice a day for two weeks. The rabbit polyclonal antibody against mouse aP2 was produced using recombinant, full-length aP2 protein and the antibody was purified from serum of the final bleed using the NAb™ Spin system (Pierce Biotechnology, Inc). Pre-immune serum was purified similarly and used as control. […]

FABP-deficient mice = experiment: Hyperinsulinemic-euglycemic clamp in FABP-deficient mice infused with recombinant aP2; assay type: in vivo
Method: The mice were fasted overnight before the experiments and were infused with Intralipid at 3 ml/kg/h (Abbott) and heparin (6 U/h) for 5 hours. […] Mice were catheterized as described above. Hyperinsulinemic-euglycemic clamps were performed by a modification of a reported procedure^15. After an overnight fast, HPLC purified [3H]-glucose (0.05 μCi/min; PerkinElmer Life and Analytical Sciences, Boston, Mass.) was infused during the 2-h basal period, and blood samples were collected at the end to estimate the rate of basal hepatic glucose production. After the basal period, a 120-min hyperinsulinemic-euglycemic clamp was conducted with a primed-continuous infusion of human insulin (Humulin R; Eli Lilly, Indianapolis, Ind.) at a rate of 12.5 mU/kg/min. Blood samples were collected at 20-min intervals for the immediate measurement of plasma glucose concentrations, and 25% glucose was infused at variable rates to maintain plasma glucose at basal concentrations. Insulin-stimulated whole-body glucose turnover was estimated with a continuous infusion of [3-^3H]-glucose throughout the clamps (0.1 μCi/min). All infusions were performed using flow-controlled microdialysis pumps (CMA/Microdialysis, North Chelmsford, Mass.). Blood samples were taken at 80, 85, 90, 100, 110, and 120 min after the start of clamps for the determination of plasma [^3H]-glucose, and ^3H2O concentrations. […]

C[C@H]1CCC/C=C/[C@@H]2C[C@H](O)C[C@H]2[C@H](O)/C=C/C(=O)O1 [brefeldin A]
aP2 release from adipocytes treated with inhibitors of classical secretory pathways [1]: neither had any inhibitory effect | adiponectin secretion from adipocytes [2]: efficiently blocked adiponectin secretion

CC(C)NCC(O)c1ccc(O)c(O)c1 (centres unmarked) [isoproterenol]
serum aP2 levels (serum aP2): rapid increase in serum aP2 levels

CC[C@@]1([C@@H]2O[C@@H]([C@H]3O[C@@](O)(CO)[C@H](C)C[C@@H]3C)C[C@@H]2C)CC[C@H]([C@]2(C)CC[C@]3(C[C@H](O)[C@@H](C)[C@@H]([C@@H](C)[C@@H](OC)[C@H](C)C(=O)O)O3)O2)O1 [monensin]
aP2 release from adipocytes treated with inhibitors of classical secretory pathways [1]: neither had any inhibitory effect | adiponectin secretion from adipocytes [2]: efficiently blocked adiponectin secretion

diethylumbelliferyl phosphate [DEUP]
lipolysis-induced aP2 secretion from adipocytes [1]: completely blocked lipolysis-induced aP2 secretion

insulin
lipolysis-induced aP2 secretion from adipocytes [1]: aP2 secretion was suppressed

B1: recombinant aP2: Recombinant aP2 with 6×His tag produced in E. coli, purified, endotoxin removed (protein)
chain: CDAFVGTWKLVSSENFDDYMKEVGVGFATRKVAGMAKPNMIISVNGDLVTIRSESTFKNTEISFKLGVEFDEITADDRKVKSIITLDGGALVQVQKWDGKSTTIKRKRDGDKLVVECVMKGVTSTRVYERA
G6P gene expression in liver (PEPCK and G6P): significantly upregulated | PEPCK gene expression in liver (PEPCK and G6P): significantly upregulated | serum aP2 levels during aP2 infusion ([3]; FABP-deficient mice, infusion 8 μg/kg/min): rapid increase in serum aP2 levels | serum aP2 levels after a single dose of recombinant aP2 ([3]; WT mice on regular chow diet, injection): increased levels of serum aP2 that lasted for several hours | glucose tolerance in glucose tolerance test [4]: mild glucose intolerance; also recorded: developed glucose intolerance | glucose metabolism rates (FABP-deficient mice; FABP-deficient mice infused with recombinant aP2): absence of alterations in glucose metabolism rates | basal hepatic glucose production (bHGP) (FABP-deficient mice; FABP-deficient mice infused with recombinant aP2 for 4 hours, vs control protein): significantly increased basal hepatic glucose production
